Measurements published in PubChem BioAssay (NCI).
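Assay format: 96-well plates, 48-hour exposure. TGI marks complete inhibition of growth.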

What was measured:
Assay in all cases: DTP human tumour cell line panel, 48 h
[1] = test system: 786-0 renal
[2] = test system: A498 renal
[3] = test system: A549 NSCLC
[4] = test system: ACHN renal
[5] = test system: BT-549 breast
[6] = test system: CAKI-1 renal
[7] = test system: CCRF-CEM leukemia
[8] = test system: COLO 205 colon
[9] = test system: DLD-1 colon
[10] = test system: DMS 114 small cell lung
[11] = test system: DMS 273 small cell lung
[12] = test system: DU-145 prostate
[13] = test system: EKVX NSCLC
[14] = test system: HCC-2998 colon
[15] = test system: HCT-116 colon
[16] = test system: HCT-15 colon
[17] = test system: HL-60(TB) leukemia
[18] = test system: HOP-18 NSCLC
[19] = test system: HOP-62 NSCLC
[20] = test system: HOP-92 NSCLC
[21] = test system: HS 578T breast
[22] = test system: HT29 colon
[23] = test system: IGROV1 ovarian
[24] = test system: K-562 leukemia
[25] = test system: KM12 colon
[26] = test system: KM20L2 colon
[27] = test system: LOX IMVI melanoma
[28] = test system: M14 melanoma
[29] = test system: M19-MEL melanoma
[30] = test system: MALME-3M melanoma
[31] = test system: MCF7 breast
[32] = test system: MDA-MB-231 breast
[33] = test system: MDA-MB-435
[34] = test system: MDA-N
[35] = test system: MOLT-4 leukemia
[36] = test system: NCI-H226 lung
[37] = test system: NCI-H23 lung
[38] = test system: NCI-H460 lung
[39] = test system: NCI-H522 lung
[40] = test system: NCI/ADR-RES ovarian
[41] = test system: OVCAR-3 ovarian
[42] = test system: OVCAR-4 ovarian
[43] = test system: OVCAR-5 ovarian
[44] = test system: OVCAR-8 ovarian
[45] = test system: PC-3 prostate
[46] = test system: RPMI-8226 leukemia
[47] = test system: RXF 393 renal
[48] = test system: SF-268 CNS
[49] = test system: SF-295 CNS
[50] = test system: SF-539 CNS
[51] = test system: SK-MEL-2 melanoma
[52] = test system: SK-MEL-28 melanoma
[53] = test system: SK-MEL-5 melanoma
[54] = test system: SK-OV-3 ovarian
[55] = test system: SN12C renal
[56] = test system: SNB-19 CNS
[57] = test system: SNB-75 CNS
[58] = test system: SNB-78 CNS
[59] = test system: SR leukemia
[60] = test system: SW-620 colon
[61] = test system: T-47D breast
[62] = test system: TK-10 renal
[63] = test system: U251 CNS
[64] = test system: UACC-257 melanoma
[65] = test system: UACC-62 melanoma
[66] = test system: UO-31 renal
[67] = test system: XF 498 CNS

Compound: COc1ccc(/C=C2\C(=O)NC(=O)c3ccccc32)cc1OC
- TGI [1]: 44.5 µM
- TGI [2]: > 100 µM
- TGI [3]: > 100 µM
- TGI [4]: > 74.7 µM
- TGI [5]: > 100 µM
- TGI [6]: > 100 µM
- TGI [7]: 21.9 µM
- TGI [8]: > 100 µM
- TGI [9]: 19.2 µM
- TGI [10]: 18.4 µM
- TGI [11]: > 100 µM
- TGI [12]: > 100 µM
- TGI [13]: > 100 µM
- TGI [14]: > 100 µM
- TGI [15]: 43.1 µM
- TGI [16]: > 100 µM
- TGI [17]: 16.2 µM
- TGI [18]: > 100 µM
- TGI [19]: 58.3 µM
- TGI [20]: 39.8 µM
- TGI [21]: > 100 µM
- TGI [22]: > 100 µM
- TGI [23]: > 83.2 µM
- TGI [24]: > 70.9 µM
- TGI [25]: > 100 µM
- TGI [26]: > 100 µM
- TGI [27]: 55.8 µM
- TGI [28]: > 100 µM
- TGI [29]: > 100 µM
- TGI [30]: > 100 µM
- TGI [31]: > 100 µM
- TGI [32]: > 100 µM
- TGI [33]: 99.1 µM
- TGI [34]: > 66.8 µM
- TGI [35]: 76.6 µM
- TGI [36]: 99 µM
- TGI [37]: > 90.5 µM
- TGI [38]: 67.4 µM
- TGI [39]: 49.6 µM
- TGI [40]: > 100 µM
- TGI [41]: > 26.4 µM
- TGI [42]: 62.1 µM
- TGI [43]: > 100 µM
- TGI [44]: 42.2 µM
- TGI [45]: > 100 µM
- TGI [46]: 47.9 µM
- TGI [47]: 33.9 µM
- TGI [48]: > 69.9 µM
- TGI [49]: > 100 µM
- TGI [50]: 22.9 µM
- TGI [51]: > 94.5 µM
- TGI [52]: > 100 µM
- TGI [53]: > 94.4 µM
- TGI [54]: 81 µM
- TGI [55]: > 100 µM
- TGI [56]: > 93.6 µM
- TGI [57]: > 87.5 µM
- TGI [58]: > 66.2 µM
- TGI [59]: 18.9 µM
- TGI [60]: 46.3 µM
- TGI [61]: > 100 µM
- TGI [62]: > 100 µM
- TGI [63]: > 63.5 µM
- TGI [64]: > 100 µM
- TGI [65]: 78.2 µM
- TGI [66]: 80 µM
- TGI [67]: 42.5 µM
